# In patent US20050032165A1, “Potassium channels, nucleotide sequences encoding them, and methods of using same” (BASF AKTIENGESELLSCHAFT, priority 1994, published 2005):
# What was measured:
# TPKC1 [1] = molecular target: T1, TPKC1 (Homo sapiens, UniProt O95069, D309R/L311V/L365I/T411A/W310L); assay: TPCK1-induced currents in X. laevis oocytes, two-electrode voltage clamp; format: cell-based; design: The TPKC1 ORF was amplified by PCR with 5′ primer; expressed in transfected cells; host or cells: Xenopus laevis oocytes injected with cRNA transcribed from pLP163; conditions: for block of TPKC1 current: relative to Ba2+ (50% at 1 mM), data not shown
# T1 sequence (O95069 1-426 D309R/W310L/L311V/L365I/T411A): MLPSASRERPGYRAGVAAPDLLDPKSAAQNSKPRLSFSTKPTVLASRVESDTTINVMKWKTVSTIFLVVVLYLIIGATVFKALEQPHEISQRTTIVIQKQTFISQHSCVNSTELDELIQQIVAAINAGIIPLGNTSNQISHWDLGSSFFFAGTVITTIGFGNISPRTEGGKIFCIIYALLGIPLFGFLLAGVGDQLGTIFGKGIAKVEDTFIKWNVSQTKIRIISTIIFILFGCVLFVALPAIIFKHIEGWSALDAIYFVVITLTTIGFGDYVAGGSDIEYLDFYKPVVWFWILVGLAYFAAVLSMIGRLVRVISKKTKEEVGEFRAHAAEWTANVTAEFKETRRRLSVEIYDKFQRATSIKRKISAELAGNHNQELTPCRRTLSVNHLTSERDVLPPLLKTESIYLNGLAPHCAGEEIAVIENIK
# Description: The expression vector pLP160 was generated by inserting a poly (A)n tract (n=30) followed by a BglII site between the Not1 and XbaI sites of pBluescript SK (+/−) (Stratagene). The final vector contains a deletion from the poly(A) tract through the BamH1 site. The TPKC1 ORF was amplified by PCR with 5′ primer (5′-AAAAAGCTTGCCACCATGCTTCCCAGCGCC-3′) and 3′ primer (5′-CTA TTT GAT GTT CTC-3′), digested with the HindIII and inserted into the vector pLP160 digested with HindIII and SmaI to give pLP163. This construct was linearized with BglII for in vitro cRNA transcription with T7 RNA polymerase (Ambion). The cRNA was quantified by gel electrophoresis using RNA standards (Gibco BRL). One ng of TPKC1 cRNA (23 nl of 40 ng/μl solution) was microinjected into defolliculated oocytes from Xenopus laevis. Oocytes were incubated at 17° C. with gentle shaking in ND96 medium. Whole cell electrophysiological recordings were taken 1-3 days post-injection at room temperature in a constantly-perfusing bath using a two-electrode voltage clamp protocol of 300 ms pulses from −150 to +60 mV from a holding potential of −90 mV. The interval between pulses was one second. Electrodes (3 MΩ current injection, 30 MΩ voltage recording) contained 4 M potassium acetate.
# TPKC1 [2] = molecular target: T1, TPKC1; assay: Growth of TPKC1-containing CY162 cells on low potassium media; format: cell-based; design: The TPKC1 ORF was amplified by PCR with 5′ primer; expressed in transfected cells; conditions: low (2-3 mM KCl) potassium media
# Description: The TPKC1 ORF was amplified using oligos that added restriction endonuclease cleavage sites appropriate for insertion into the yeast expression vectors pLP100 and pYES2 (Invitrogen). The corresponding TPKC1 expression plasmids, pLP155 and pLP156, were constructed using standard molecular biological methodology and used to transform S. cerevisiae CY162 cells using the lithium acetate method. The resulting yeast strains were examined for their ability to grow on standard synthetic agar media containing a low concentration of KCl. Expression of TPKC1 in CY162 cells supports their growth on low (2-3 mM KCl) potassium media. […] The growth of TPKC1-containing CY162 cells was inhibited by the known potassium channel blockers Ba^2+, Ca^2+, Cs^+, and quinine, but not by TEA. The oligos used for the cloning of 5′ and 3′ RACE fragments were used in this analysis as well.
# LY890 (MAT trk1:: LYS2 trk2::TRP1 ura3-52 lys2-801, ade2-101, trp1-Δ63, his3-Δ200, leu2-Δ1) was constructed by deletion of the TRK1 and TRK2 genes from the parent yeast strain YPH500 (Stratagene). The full length TPKC1 ORF fragment was generated by PCR; 5′ primer (5′-AAAAGATCTAAAATGCTTCCCAGCGCC-3′), 3′ primer (AAAGTCGACCTATTTGATGTTCTCAAT-3′) and inserted into the yeast expression vector pLP100 [18] to yield pLP155. pLP155 was used to transform S. cerevisiae LY890 cells using standard methods. CY162 was constructed as described in J. A. Anderson et al., Proc. Natl. Acad. Sci. USA 89, 3736-3740 (1992). Yeast cells (10^5) containing the indicated plasmids were plated in RPD (arginine phosphate glucose) low potassium (2 mM) agar media and compounds applied to the surface of the agar.
# KAT1 = molecular target: T2, KAT1 (Arabidopsis thaliana, UniProt Q39128); assay: Yeast agar plate bioassay, KAT-dependent growth of CY162; format: cell-based, plant; conditions: CY162 yeast bearing pKAT1; filter disk with 20 μl of 1 M solution; arginine phosphate agar, 0.2 mM KCl
# T2 construct: expressed in transfected cells; host or cells: Saccharomyces cerevisiae CY162 carrying pKAT1
# Method: (§1) FIG. 8. Inhibition of growth of yeast cells containing heterologous potassium channels. CY162 cells (10^5) bearing the indicated plasmids are plated in arginine phosphate agar medium containing 0.2 mM potassium chloride. Sterile filter disks were placed on the surface of the agar and saturated with 20 μl of a 1 M solution of potassium channel blocking compound. Clockwise from upper left-hand comer is BaCl2, CsCl, TEA, and RbCl. KCl is applied to the center disk.
# (§2) Yeast strains dependent on heterologous potassium channels for growth should be sensitive to non-specific potassium channel blocking compounds. To test the potassium channel blocking properties of several compounds, a convenient agar plate bioassay is employed. Strains containing pKAT1, pRATRAK, pDmORF1, and pYES2 are plated in arginine-phosphate-dextrose agar medium lacking ura and containing various amounts of potassium chloride. Arginine-phosphate-dextrose medium is used to avoid interference from potassium and ammonium ions present in standard synthetic yeast culture medium. Sterile filter disks were placed on the surface of the agar and saturated with potassium channel blocking ions CsCl, BaCl2, and TEA. The growth of heterologous potassium channel containing strains is inhibited by potassium channel blocking ions, in a channel dependent manner. DmORF1-dependent growth is blocked by BaCl2 but not by CsCl or TEA. KAT-dependent growth is blocked by BaCl2, CsCl and TEA. RATRAK-dependent growth is blocked by BaCl2, CsCl and TEA to a much greater extent than pKAT1, reflecting in part a slower growth rate of pRATRAK-containing cells.
# DmORF1 [3] = molecular target: T3, DmORF1 (Drosophila melanogaster, UniProt Q94526); assay: Yeast agar plate bioassay, DmORF1-dependent growth of CY162; format: cell-based; design: A single long open reading frame sufficient to encode a protein of 618 amino acids (predicted MW 68 kDa) is encoded in pDmORF1; expressed in transfected cells; host or cells: Saccharomyces cerevisiae CY162 (trk1 trk2) carrying pDmORF1 (pYES2 library plasmid); conditions: CY162 yeast bearing pDmORF1; filter disk with 20 μl of 1 M solution; arginine phosphate agar, 0.2 mM KCl
# Method: as §1, §2
# RATRAK = molecular target: T4, RATRAK (Rattus norvegicus, UniProt P63142); assay: Yeast agar plate bioassay, RATRAK-dependent growth of CY162; format: cell-based; conditions: CY162 yeast bearing pRATRAK; filter disk with 20 μl of 1 M solution; blocked to a much greater extent than pKAT1
# T4 construct: expressed in transfected cells; host or cells: Saccharomyces cerevisiae CY162 carrying pRATRAK
# Method: as §1, §2
# CY162 cells = assay: Yeast agar plate bioassay, control pYES2-containing CY162 strain; format: cell-based, Saccharomyces cerevisiae; conditions: CY162 bearing pYES2; low potassium agar; compound on filter disk
# Method: as §1
# as §2, with “KAT-dependent growth is blocked by BaCl2, CsCl and TEA. RATRAK-dependent growth is blocked by BaCl2, CsCl and TEA to a much greater extent than pKAT1, reflecting in part a slower growth rate of pRATRAK-containing cells.” left out
# DmORF1 [4] = molecular target: T3, DmORF1; assay: 86Rb uptake into CY162 cells containing DmORF1; format: cell-based; design: A single long open reading frame sufficient to encode a protein of 618 amino acids (predicted MW 68 kDa) is encoded in pDmORF1; expressed in transfected cells; host or cells: Saccharomyces cerevisiae CY162 (trk1 trk2) carrying pDmORF1 (pYES2 library plasmid); conditions: CY162-DmORF1 yeast cells, Ca-MES buffer, room temperature
# Method: Expression of DmORF permits CY162 cells to grow on medium containing a low concentration of potassium, implying that DmORF1 supplies high affinity potassium uptake capacity. To characterize the potassium uptake properties of CY162 cells containing DmORF1, ^86Rb uptake studies were performed.
# Yeast strains containing heterologous potassium-expression plasmids CY162-DmORF1, CY162-pKAT and the control strain CY162-pYES2 (Clontech) were cultured overnight in SC Gal-ura containing 0.1 M KCl. The cells were harvested, washed with sterile doubled distilled water and starved for K^+ for 6 hours in Ca-MES buffer. Cells were washed again and distributed to culture tubes (10^8 cells/tube) containing ^86RbCl in Ca-MES buffer.
# DmORF1 [5] = molecular target: T3, DmORF1; assay: DmORF1-induced currents in X. laevis oocytes, two-electrode voltage clamp; format: cell-based; design: A single long open reading frame sufficient to encode a protein of 618 amino acids (predicted MW 68 kDa) is encoded in pDmORF1; expressed in transfected cells; conditions: two-electrode whole-cell voltage clamp
# Method: To test this hypothesis, the electrophysiological properties of the putative potassium channel encoded by DmORF1 was examined by expression in X. laevis oocytes. Currents were measured by two-electrode whole-cell voltage clamp. DNA sequences encoding the open reading frame of DmORF1 were amplified by polymerase chain reaction (PCR) using the following oligonucleotides:
# The full length PCR product was cloned into corresponding sites in pSP64 poly A (Promega), forming pMP147. Template DNA was linearized with EcoRI and RNA transcribed using the Message Machine (Ambion) in vitro transcription kit according to manufacturers instructions. A sample of the RNA was resolved in a MOPS-acetate-formaldehyde agarose gel and RNA content was estimated by ethidium bromide staining. The remainder was stored on dry ice. X. laevis oocytes were isolated and injected with 50 nl of sterile TE containing 5-20 ng transcript according to published procedures. After three days, whole oocyte currents were recorded using a two-electrode voltage clamp. Electrodes contained 3M KCl and had resistances of 0.3-1.0 MW. Recordings were performed faith constant perfusion at room temperature in the presence of either low (10 mM) or high (90 mM) potassium chloride.
# T4 sequence (P63142 whole entry): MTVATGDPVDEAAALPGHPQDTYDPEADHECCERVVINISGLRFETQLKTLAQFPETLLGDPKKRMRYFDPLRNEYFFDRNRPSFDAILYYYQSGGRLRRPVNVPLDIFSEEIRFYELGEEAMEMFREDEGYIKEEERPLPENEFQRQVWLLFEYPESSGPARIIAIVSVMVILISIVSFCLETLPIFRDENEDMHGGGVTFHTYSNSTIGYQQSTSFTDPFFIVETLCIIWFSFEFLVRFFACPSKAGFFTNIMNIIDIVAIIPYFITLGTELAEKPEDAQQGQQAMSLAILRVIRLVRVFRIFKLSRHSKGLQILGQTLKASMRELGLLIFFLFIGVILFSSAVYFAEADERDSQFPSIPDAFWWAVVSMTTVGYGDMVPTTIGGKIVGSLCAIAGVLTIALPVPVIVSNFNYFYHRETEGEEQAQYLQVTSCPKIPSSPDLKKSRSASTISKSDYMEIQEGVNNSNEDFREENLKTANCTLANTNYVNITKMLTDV
# T3 sequence (Q94526 other isoform, or with tags, fused parts or gaps with the stated changes): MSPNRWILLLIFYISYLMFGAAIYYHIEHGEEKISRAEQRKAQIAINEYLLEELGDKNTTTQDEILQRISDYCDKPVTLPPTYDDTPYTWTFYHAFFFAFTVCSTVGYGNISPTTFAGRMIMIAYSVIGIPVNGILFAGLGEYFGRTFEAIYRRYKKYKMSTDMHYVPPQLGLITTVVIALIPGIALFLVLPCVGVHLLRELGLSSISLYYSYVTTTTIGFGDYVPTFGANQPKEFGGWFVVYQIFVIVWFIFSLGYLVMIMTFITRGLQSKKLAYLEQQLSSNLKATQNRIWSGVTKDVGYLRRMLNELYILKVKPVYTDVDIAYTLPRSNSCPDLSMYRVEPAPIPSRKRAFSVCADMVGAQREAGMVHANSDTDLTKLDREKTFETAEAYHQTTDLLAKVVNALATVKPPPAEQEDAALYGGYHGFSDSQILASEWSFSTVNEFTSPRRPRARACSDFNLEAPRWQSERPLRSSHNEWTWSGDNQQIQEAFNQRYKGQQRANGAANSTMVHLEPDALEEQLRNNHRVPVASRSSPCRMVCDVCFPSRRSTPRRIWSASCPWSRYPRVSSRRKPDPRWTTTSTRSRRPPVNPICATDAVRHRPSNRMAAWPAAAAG
# T2 sequence (Q39128 whole entry): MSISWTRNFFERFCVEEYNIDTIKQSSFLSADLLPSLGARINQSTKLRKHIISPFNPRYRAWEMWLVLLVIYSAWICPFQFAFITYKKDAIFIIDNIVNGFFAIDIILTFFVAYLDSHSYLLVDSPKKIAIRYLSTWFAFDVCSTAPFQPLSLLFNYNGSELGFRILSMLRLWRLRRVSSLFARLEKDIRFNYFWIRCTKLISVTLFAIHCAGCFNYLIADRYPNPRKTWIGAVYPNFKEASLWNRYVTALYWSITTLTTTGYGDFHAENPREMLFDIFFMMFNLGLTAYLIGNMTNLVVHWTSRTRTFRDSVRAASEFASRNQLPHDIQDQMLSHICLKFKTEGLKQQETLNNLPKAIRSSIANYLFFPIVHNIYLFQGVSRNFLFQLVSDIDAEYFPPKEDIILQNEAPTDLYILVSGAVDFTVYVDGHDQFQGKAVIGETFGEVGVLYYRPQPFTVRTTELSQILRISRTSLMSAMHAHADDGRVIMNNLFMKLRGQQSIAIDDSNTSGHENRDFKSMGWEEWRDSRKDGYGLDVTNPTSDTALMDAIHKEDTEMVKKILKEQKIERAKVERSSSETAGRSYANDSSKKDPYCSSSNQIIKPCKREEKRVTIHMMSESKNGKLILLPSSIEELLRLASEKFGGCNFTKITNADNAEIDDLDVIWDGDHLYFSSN
Compound,block of TPKC1 current (TPKC1 [1]),inhibition of growth of TPKC1-containing CY162 cells (TPKC1 [2]),block of KAT-dependent growth (KAT1),block of DmORF1-dependent growth (DmORF1 [3]),block of RATRAK-dependent growth (RATRAK),further results
C=C[C@H]1C[N@@]2CC[C@H]1C[C@H]2[C@H](O)c1ccnc2ccc(OC)cc12 [quinine],block to a lesser degree,inhibited,,,,
[Cl-].[Cs+] [CsCl],failed to block,inhibited,blocked,not,blocked,
Nc1ccncc1 [4-AP],block to a lesser degree,,,,,
[Cl-].[Rb+] [RbCl],,,,,,growth of control pYES-containing strain around applied compound (CY162 cells): grows only around applied
CC[N+](CC)(CC)CC [TEA],failed to block,not,blocked,not,blocked,
[Ca+2] [Ca^2+],block to a lesser degree,inhibited,,,,
[Cl-].[K+] [KCl],,,,,,growth of control pYES-containing strain around applied compound (CY162 cells): grows only around applied
[Ba+2].[Cl-].[Cl-] [BaCl2],,inhibited,blocked,blocked,blocked,"inhibition of 86Rb uptake (DmORF1 [4]): inhibited; inhibition of TPKC1 current (TPKC1 [1]; applied at 1 mM, FIG. 11D): 50%; attenuation of DmORF1 potassium currents (DmORF1 [5]): greatly attenuated"
